Literature values in patent US20040058899A1, “Use of epothilones and analogs in conjunction with ophthalmic surgery” (priority 2002, published 2004).

Tested on: tumor-implanted mice
Conditions: for toxic effects / animal deaths: comparably effective doses

Structure (SMILES) | toxic effects / animal deaths | tumor regression
COc1cccc2c1C(=O)c1c(O)c3c(c(O)c1C2=O)C[C@@](O)(C(=O)CO)C[C@@H]3O[C@H]1C[C@H](N)[C@H](O)[C@H](C)O1 [adriamycin] | caused some animal deaths | –
C/C1=C/C[C@@H](/C(C)=C/c2csc(C)n2)OC(=O)C[C@H](O)C(C)(C)C(=O)[C@H](C)[C@@H](O)[C@@H](C)CCC1 [deoxyepothilone B] | without any noticeable toxic effects | complete tumor regression
CC(=O)O[C@H]1C(=O)[C@@]2(C)[C@H]([C@H](OC(=O)c3ccccc3)[C@]3(O)C[C@H](OC(=O)[C@H](O)[C@@H](NC(=O)c4ccccc4)c4ccccc4)C(C)=C1C3(C)C)[C@]1(OC(C)=O)CO[C@@H]1C[C@@H]2O [paclitaxel] | caused some animal deaths | –
